Reference: paper PMC6736568, “Discovery of Novel Anti-cryptosporidial Activities From Natural Products by in vitro High-Throughput Phenotypic Screening” (Frontiers in Microbiology, 2019)
Structures can show the parent of a compound that is named as a salt. Where two headings read alike, the source gives them in different places.

Tests used:
Cryptosporidium parvum = assay: qRT-PCR assay of the growth of C. parvum in vitro in HCT-8 host cells (primary and secondary screening, EC50); assay type: cell-based; conditions: Cryptosporidium parvum, HCT-8; for inhibition at 10 µM: primary screening at 10 uM, read-out: Inhibition (%); for inhibition at 3.3 µM: secondary screening at 3.3 uM, read-out: % Inhibition (3.3 uM)
[1] = primary screening at 10 uM, treated vs control

| Structure (SMILES) | inhibition at 10 µM (Cryptosporidium parvum) [%] | Hs18S ΔCT (HCT-8 host cells (Hs18S); human, 41 h, 10 μM) | cytotoxicity at 41 h, 10 µM (in vitro; human) [%] | Hs18S ΔCT (HCT-8 host cells (Hs18S); [1]) | cytotoxicity at 10 µM (in vitro) [%] | cytotoxicity at 41 h, 10 µM (in vitro) [%] | inhibition at 3.3 µM (Cryptosporidium parvum) [%] |
| --- | --- | --- | --- | --- | --- | --- | --- |
| O=C(O)CCCCCCCCCCCC[C@@H]1C=CCC1 [CHAULMOOGRIC ACID] | -4.94 | -0.58 | -49.1 | – | – | – | – |
| C[C@H](CCC(=O)O)[C@H]1CC[C@H]2[C@@H]3[C@H](O)C[C@@H]4C[C@H](O)CC[C@]4(C)[C@H]3CC[C@]12C [CHENODIOL] | 77.7 | 0.27 | 17.2 | – | – | – | – |
| O=C(/C=C/c1ccc(O)c(O)c1)O[C@@H]1C[C@](O)(C(=O)O)C[C@@H](O)[C@H]1O [CHLOROGENIC ACID] | -24.5 | -0.13 | -9.1 | – | – | – | – |
| CN(C)[C@@H]1C(O)=C(C(N)=O)C(=O)[C@@]2(O)C(O)=C3C(=O)c4c(O)ccc(Cl)c4[C@@](C)(O)[C@H]3C[C@@H]12 [CHLORTETRACYCLINE HYDROCHLORIDE] | -14.1 | – | – | -0.03 | -2 | – | – |
| C=C1CC[C@H](O)C/C1=C/C=C1\CCC[C@]2(C)[C@@H]([C@H](C)CCCC(C)C)CC[C@@H]12 [CHOLECALCIFEROL] | 0.08 | – | – | -0.21 | -15.8 | – | – |
| CC(C)CCC[C@@H](C)[C@H]1CC[C@H]2[C@@H]3CC=C4CC(=O)CC[C@]4(C)[C@H]3CC[C@]12C [CHOLEST-5-EN-3-ONE] | -37.5 | 0.04 | 2.7 | – | – | – | – |
| CC(C)CCC[C@@H](C)[C@H]1CC[C@H]2[C@@H]3CC[C@H]4CC(=O)CC[C@]4(C)[C@H]3CC[C@]12C [CHOLESTAN-3-ONE] | -36.7 | – | – | -0.48 | – | -39.9 | – |
| CC(C)CCC[C@@H](C)[C@H]1CC[C@H]2[C@@H]3CC=C4C[C@@H](O)CC[C@]4(C)[C@H]3CC[C@]12C [CHOLESTEROL] | -26.8 | -0.05 | – | – | -3.8 | – | – |
| COC(=O)CC[C@@H](C)[C@H]1CC[C@H]2[C@@H]3[C@H](O)C[C@@H]4C[C@H](O)CC[C@]4(C)[C@H]3C[C@H](O)[C@]12C [CHOLIC ACID, METHYL ESTER] | 42.1 | -0.11 | -7.7 | – | – | – | – |
| CCOC(=O)C1C(C=C(C)C)C1(C)C (centres unmarked) [CHRYSANTHEMIC ACID, ETHYL ESTER] | 24.6 | – | – | -0.97 | – | -95.7 | 91 |
| CC(C)=CC1C(C(=O)O)C1(C)C (centres unmarked) [CHRYSANTHEMIC ACID] | -13.4 | – | – | -0.32 | -24.6 | – | – |
| CC(C)=CC1C(CO)C1(C)C (centres unmarked) [CHRYSANTHEMYL ALCOHOL] | -16.9 | -0.13 | -9.5 | – | – | – | – |
| Cc1cc(O)c2c(O)c3c(O)cccc3cc2c1 [CHRYSAROBIN] | -8.96 | 0.48 | 28.2 | – | – | – | – |
| COc1cc(OC)c2c(=O)cc(-c3ccccc3)oc2c1 [CHRYSIN DIMETHYL ETHER] | 90.3 | – | – | -0.12 | -8.6 | – | -69 |
| O=c1cc(-c2ccccc2)oc2cc(O)cc(O)c12 [CHRYSIN] | 20.3 | 0.14 | 9.3 | – | – | – | – |
| Cc1cc(O)c2c(c1)C(=O)c1cccc(O)c1C2=O [CHRYSOPHANOL] | -71.6 | 0.17 | 11.4 | – | – | – | – |

| Structure (SMILES) | inhibition at 10 µM (Cryptosporidium parvum) [%] | Hs18S ΔCT (HCT-8 host cells (Hs18S); human, 41 h, 10 μM) | cytotoxicity at 41 h, 10 µM (in vitro; human) [%] | Hs18S ΔCT (HCT-8 host cells (Hs18S); [1]) | cytotoxicity at 10 µM (in vitro) [%] | cytotoxicity at 41 h, 10 µM (in vitro) [%] | inhibition at 3.3 µM (Cryptosporidium parvum) [%] |
| --- | --- | --- | --- | --- | --- | --- | --- |
| Oc1cc(O)c2c(c1)O[C@H](c1ccc(O)c(O)c1)[C@@H](O)C2 [CIANIDANOL] | 2 | -0.20 | -14.9 | – | – | – | – |
| C=C[C@H]1CN2CC[C@H]1C[C@H]2[C@H](O)c1ccnc2ccccc12 [CINCHONIDINE] | 3.76 | – | – | -0.20 | – | -15.2 | – |
| C=C[C@H]1C[N@@]2CC[C@H]1C[C@@H]2[C@@H](O)c1ccnc2ccccc12 [CINCHONINE] | -10.5 | – | – | 0.01 | – | 0.4 | – |
| O=C(O)/C=C/c1ccccc1 [CINNAMIC ACID] | 2.86 | – | – | -0.39 | -31 | – | – |
| CC1=C2C(=CO[C@H](C)[C@H]2C)C(O)=C(C(=O)O)C1=O [CITRININ] | 8.51 | – | – | 0.13 | 8.3 | – | – |
| COc1cc(OC)c2ccc(=O)oc2c1 [CITROPTEN] | -43.6 | 0.38 | 23.1 | – | – | – | – |
| NC(=O)NCCC[C@H](N)C(=O)O [CITRULLINE] | -44.7 | – | – | 0.62 | 34.9 | – | – |
| CC(=O)OC1CCC23CC1(C)CCC2C(C)(C)CC3OC(C)=O (centres unmarked) [CLOVANEDIOL DIACETATE] | -0.83 | 0.55 | 31.9 | – | – | – | – |
| COc1cc2c(c(OC)c1OC)-c1ccc(=O)c(O)cc1[C@@H](NC(C)=O)CC2 [COLCHICEINE] | 13.7 | – | – | -0.43 | -34.9 | – | – |
| COc1cc2c(c(OC)c1OC)-c1ccc(OC)c(=O)cc1[C@@H](NC(C)=O)CC2 [COLCHICINE] | 24.9 | – | – | -0.34 | -26.5 | – | – |
| C=C[C@@]1(C)CC(=O)[C@]2(O)[C@@]3(C)[C@@H](O)CCC(C)(C)[C@@H]3[C@H](O)[C@H](OC(C)=O)[C@@]2(C)O1 [COLFORSIN] | 24.8 | 0.14 | 9.4 | – | – | – | – |
| C[C@H]1[C@H]2CC[C@H]3[C@@H]4CC=C5C[C@@H](N(C)C)CC[C@]5(C)[C@H]4CC[C@]23CN1C [CONESSINE] | -2.33 | -0.14 | -10.4 | – | – | – | – |
| COc1c2c(cc3c1OCO3)CC[N+](C)=C2 [COTARNINE CHLORIDE] | -14.5 | -0.20 | -15.2 | – | – | – | – |
| CN1C(=O)CC[C@H]1c1cccnc1 [COTININE] | 42.6 | 0.41 | 24.7 | – | – | – | – |
| O=c1ccc2ccccc2o1 [COUMARIN] | 13 | -0.05 | -3.8 | – | – | – | – |
